Assay results reported in US20240390508A1, “HUMAN TRANSFERRIN RECEPTOR BINDING PEPTIDE-DRUG CONJUGATE” (priority 2021, published 2024).

Biological target: transferrin receptor (hTfR) (Homo sapiens, UniProt P02786)
Test: Intermolecular interaction evaluation test between transferrin receptor (hTfR) and peptide-nucleic acid conjugate using surface plasmon resonance (SPR)
Format: binding
Method: Intermolecular interaction evaluation test between transferrin receptor (hTfR) and peptide using surface plasmon resonance (SPR)
The various synthesized peptide-nucleic acid conjugates were tested for intermolecular interaction by surface plasmon resonance (SPR) of the peptide-nucleic acid conjugate with transferrin receptor (hTfR) using the method shown below. The specific test method is shown below.
NTA sensor chip (Global Life Science Technologies Japan Co., Ltd.) was inserted into Biacore T200 (Global Life Science Technologies Japan Co., Ltd.), prime operation was performed three times with running buffer: 10 mM HEPES pH 8.0 (Nacalai Tesque Co., Ltd.), 150 mM NaCl (Nacalai Tesque Co., Ltd.), 0.05% Tween 20 (Nacalai Tesque Co., Ltd.), 0.1% BSA (SIGMA-ALDRICH), and 1.0% DMSO (FUJIFILM Wako Pure Chemical Corporation), and equilibrated at a flow rate of 30 μL/min. 350 mM EDTA solution was reacted for 60 seconds at a flow rate of 10 μL/min, 0.5 mM NiCl2 solution (Kishida Chemical) was reacted for 60 seconds at a flow rate of 10 μL/min, and the NTA sensor chip was washed with 3 mM EDTA solution (Nacalai Tesque Co., Ltd.) for 60 seconds at a flow rate of 10 μL/min. After mixing 50 μL each of […] EDC solution (Global Life Science Technologies Japan Co., Ltd.) and […] NHS solution (Global Life Science Technologies Japan Co., Ltd.), the mixture was reacted for 420 seconds at a flow rate of 10 μL/min. 150 μL of a 0.5 μM hTfR solution was prepared by diluting with a running buffer and reacted for 300 seconds at a flow rate of 10 μL/min to immobilize hTfR on the NTA sensor chip. After immobilization, capping was performed by reacting with a 1.0 M ethanolamine aqueous solution (Global Life Science Technologies Japan Co., Ltd.) at a flow rate of 10 μL/min for 420 seconds. A peptide-nucleic acid conjugate solution adjusted to 10 mM in DMSO solution was diluted with running buffer to a final concentration of 10 μM peptide-nucleic acid conjugate solution, and 100 nM, 50 nM, 25 nM, 10 nM, 5 nM peptide-nucleic acid conjugate solutions were prepared. Using the aforementioned samples, the kinetics of the peptide against hTfR was obtained by SPR measurement.
The kinetics evaluation model was Single Cycle Kinetics, and curve fitting was performed using Biacore T200 Evaluation Software Version 3.0 (Global Life Science Technologies Japan Co., Ltd.). The obtained sensorgram was subjected to curve fitting using the least squares method, and the binding of the peptide-nucleic acid conjugate to hTfR was evaluated by determining the KD value.

transferrin receptor (hTfR), sequence (P02786 whole entry): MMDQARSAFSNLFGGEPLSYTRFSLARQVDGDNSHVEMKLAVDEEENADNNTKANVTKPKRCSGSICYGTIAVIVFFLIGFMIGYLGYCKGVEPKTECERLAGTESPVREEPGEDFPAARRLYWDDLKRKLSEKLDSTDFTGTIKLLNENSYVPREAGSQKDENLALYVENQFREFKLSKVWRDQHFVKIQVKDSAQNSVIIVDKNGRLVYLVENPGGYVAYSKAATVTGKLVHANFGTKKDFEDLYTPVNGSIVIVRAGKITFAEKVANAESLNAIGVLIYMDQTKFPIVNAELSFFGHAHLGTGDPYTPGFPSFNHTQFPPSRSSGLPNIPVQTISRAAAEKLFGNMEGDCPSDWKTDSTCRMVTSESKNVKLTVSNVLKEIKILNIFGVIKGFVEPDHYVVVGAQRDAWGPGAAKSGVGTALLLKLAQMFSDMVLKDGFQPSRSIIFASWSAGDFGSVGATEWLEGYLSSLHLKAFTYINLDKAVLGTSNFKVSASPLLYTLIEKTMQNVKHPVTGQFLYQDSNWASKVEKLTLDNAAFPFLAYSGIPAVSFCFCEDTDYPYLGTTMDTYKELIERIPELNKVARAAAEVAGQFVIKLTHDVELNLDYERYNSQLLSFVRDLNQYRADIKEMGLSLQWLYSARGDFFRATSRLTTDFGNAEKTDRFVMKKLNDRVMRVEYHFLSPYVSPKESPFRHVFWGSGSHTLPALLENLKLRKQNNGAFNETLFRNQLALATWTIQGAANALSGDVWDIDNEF

`CC[C@H](C)[C@@H]1NC(=O)[C@H](Cc2ccc(O)cc2)NC(=O)[C@H](Cc2ccc(O)cc2)NC(=O)[C@H](CC(N)=O)NC(=O)[C@H](Cc2c[nH]c3ccccc23)NC(=O)[C@H](C(C)C)NC(=O)[C@H](Cc2ccccc2)N(C)C(=O)[C@H](C(C)C)NC(=O)[C@H](C)NC(=O)CSC[C@@H](C(=O)NCC(=O)N[C@@H](CCCCn2cc(CCC(=O)NCCOCCOCC(=O)N[C@@H](CCCCN)C(=O)N[C@@H](CCCCN)C(=O)N[C@@H](CCCCN)C(=O)NCC(=O)N3C[C@@H](COP(=O)(N(C)C)N4C[C@@H](COP(=O)(N(C)C)N5C[C@@H](COP(=O)(N(C)C)N6C[C@@H](COP(=O)(N(C)C)N7C[C@@H](COP(=O)(N(C)C)N8C[C@@H](COP(=O)(N(C)C)N9C[C@@H](COP(=O)(N(C)C)N%10C[C@@H](COP(=O)(N(C)C)N%11C[C@@H](COP(=O)(N(C)C)N%12C[C@@H](COP(=O)(N(C)C)N%13C[C@@H](COP(=O)(N(C)C)N%14C[C@@H](COP(=O)(N(C)C)N%15C[C@@H](COP(=O)(N(C)C)N%16C[C@@H](COP(=O)(N(C)C)N%17C[C@@H](COP(=O)(N(C)C)N%18C[C@@H](COP(=O)(N(C)C)N%19C[C@@H](COP(=O)(N(C)C)N%20C[C@@H](COP(=O)(N(C)C)N%21C[C@@H](COP(=O)(N(C)C)N%22C[C@@H](COP(=O)(N(C)C)N%23C[C@@H](COP(=O)(N(C)C)N%24C[C@@H](COP(=O)(N(C)C)N%25C[C@@H](COP(=O)(N(C)C)N%26C[C@@H](COP(=O)(N(C)C)N%27C[C@@H](COP(=O)(N(C)C)N(C)CC(N)=O)O[C@@H](n%28cnc%29c(=O)[nH]c(N)nc%29%28)C%27)O[C@@H](n%27cnc%28c(=O)[nH]c(N)nc%28%27)C%26)O[C@@H](n%26ccc(N)nc%26=O)C%25)O[C@@H](n%25ccc(N)nc%25=O)C%24)O[C@@H](n%24cnc%25c(N)ncnc%25%24)C%23)O[C@@H](n%23cnc%24c(N)ncnc%24%23)C%22)O[C@@H](n%22cnc%23c(N)ncnc%23%22)C%21)O[C@@H](n%21ccc(N)nc%21=O)C%20)O[C@@H](n%20ccc(N)nc%20=O)C%19)O[C@@H](n%19cc(C)c(=O)[nH]c%19=O)C%18)O[C@@H](n%18ccc(N)nc%18=O)C%17)O[C@@H](n%17cnc%18c(=O)[nH]c(N)nc%18%17)C%16)O[C@@H](n%16cnc%17c(=O)[nH]c(N)nc%17%16)C%15)O[C@@H](n%15ccc(N)nc%15=O)C%14)O[C@@H](n%14cc(C)c(=O)[nH]c%14=O)C%13)O[C@@H](n%13cc(C)c(=O)[nH]c%13=O)C%12)O[C@@H](n%12cnc%13c(N)ncnc%13%12)C%11)O[C@@H](n%11ccc(N)nc%11=O)C%10)O[C@@H](n%10ccc(N)nc%10=O)C9)O[C@@H](n9cc(C)c(=O)[nH]c9=O)C8)O[C@@H](n8cnc9c(=O)[nH]c(N)nc98)C7)O[C@@H](n7cnc8c(N)ncnc87)C6)O[C@@H](n6cnc7c(N)ncnc76)C5)O[C@@H](n5cnc6c(N)ncnc65)C4)O[C@@H](n4cc(C)c(=O)[nH]c4=O)C3)nn2)C(N)=O)NC(=O)[C@H](Cc2ccc(O)cc2)N(C)C(=O)[C@H](Cc2ccc(O)cc2)NC(=O)[C@H](CCCNC(=N)N)NC(=O)[C@H](CCCNC(=N)N)NC(=O)[C@H]([C@@H](C)CC)NC1=O` (stereo partly shown) [Example 61] was tested, and the Kd was < 100 nM.
